Reference: BigSolDB 2.1

NCC(CC(=O)O)c1ccc(Cl)cc1 (configuration not stated)
solubility (mole fraction)
Conditions | 273.15 K | 278.15 K | 283.15 K | 288.15 K | 293.15 K | 298.15 K | 303.15 K | 308.15 K | 313.15 K | 318.15 K
in 1,4-dioxane | – | – | – | 0.000519 | 0.000568 | 0.000632 | 0.000704 | 0.000788 | 0.000888 | 0.000996
in 2-butanone | 0.000439 | 0.000475 | 0.000522 | 0.000579 | 0.000639 | 0.000703 | 0.000792 | 0.0009 | 0.00101 | 0.00112
in DMAc | 0.0934 | 0.0945 | 0.0957 | 0.0969 | 0.0982 | 0.0995 | 0.101 | 0.102 | 0.104 | 0.105
in DMF | 0.0998 | 0.101 | 0.102 | 0.104 | 0.106 | 0.108 | 0.11 | 0.112 | 0.115 | 0.117
in acetone | 0.000228 | 0.000236 | 0.000246 | 0.000258 | 0.000273 | 0.000289 | 0.000305 | 0.000322 | 0.00034 | 0.000358
in ethanol | 1.95e-05 | 2.23e-05 | 2.58e-05 | 3e-05 | 3.4e-05 | 3.85e-05 | 4.33e-05 | 4.86e-05 | 5.39e-05 | 5.86e-05
in ethyl acetate | 0.00412 | 0.00419 | 0.00427 | 0.00436 | 0.00446 | 0.00456 | 0.00467 | 0.00476 | 0.00488 | 0.00499
in isopropanol | 3.16e-05 | 3.67e-05 | 4.17e-05 | 4.74e-05 | 5.35e-05 | 5.99e-05 | 6.67e-05 | 7.41e-05 | 8.21e-05 | 9.04e-05
in methanol | 0.000109 | 0.000116 | 0.000124 | 0.000133 | 0.000143 | 0.000153 | 0.000162 | 0.000173 | 0.000186 | 0.000198
in n-butanol | 5.73e-05 | 6.12e-05 | 6.61e-05 | 7.11e-05 | 7.68e-05 | 8.34e-05 | 9.06e-05 | 9.72e-05 | 0.000104 | 0.000113
in n-propanol | 2.57e-05 | 3.01e-05 | 3.47e-05 | 4.03e-05 | 4.61e-05 | 5.35e-05 | 6.1e-05 | 6.85e-05 | 7.63e-05 | 8.77e-05
in toluene | 0.0054 | 0.00569 | 0.00601 | 0.00639 | 0.00673 | 0.00709 | 0.00749 | 0.0079 | 0.00831 | 0.00866
